Results: US20240059703A1 (AMGEN INC., priority 2021, published 2024)

Target: KRAS G12C (Homo sapiens (Human), UniProt P01116, C118A/G12C)
Experiment: 2 h coupled exchange assay
Format: biochemical
Settings: Avg 2 h Coupled exchange IC50, 2 h compound pre-incubation, SOS-mediated nucleotide exchange
Method: The term “2 h coupled exchange assay” or “20 h coupled exchange assay” as used herein refers to the assay described in the Section entitled “BIOLOGICAL EVALUATION.”

Sequence of KRAS G12C (P01116 other isoform, or with tags, fused parts or gaps G12C/C118A): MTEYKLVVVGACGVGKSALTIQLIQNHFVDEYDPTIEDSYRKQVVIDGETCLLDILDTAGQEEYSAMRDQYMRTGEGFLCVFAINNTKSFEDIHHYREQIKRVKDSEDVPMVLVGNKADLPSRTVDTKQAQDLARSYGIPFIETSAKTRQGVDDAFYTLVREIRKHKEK

SMILES	IC50 [nM]
C=CC(=O)N1CC2(CCN(c3nc4c(c(-c5c(C)ccc6[nH]ncc56)c3C#N)CCC4(F)F)C2)C1 [Example 13-58, 7,7-difluoro-4-(5-methyl-1H-indazol-4-yl)-2-(2-(2-propenoyl)-2,6-diazaspiro[3.4]octan-6-yl)-6,7-dihydro-5H-cyclopenta[b]pyridine-3-carbonitrile]	514
C=CC(=O)N1CC2(CCN(c3nc4c(c(-c5c(C)ccc6cnn(C)c56)c3C#N)C[C@H]3C[C@@H]4C3(C)C)[C@@H]2CO)C1 [Example 13-61, (1R,9R)-6-(1,6-dimethyl-1H-indazol-7-yl)-4-((5S)-5-(hydroxymethyl)-2-(2-propenoyl)-2,6-diazaspiro[3.4]octan-6-yl)-10,10-dimethyl-3-azatricyclo[7.1.1.0^2,7]undeca-2,4,6-triene-5-carbonitrile]	332
C=CC(=O)N1CC2(CCN(c3nc4c(c(-c5c(C)ccc6cnn(C)c56)c3C#N)C[C@H]3C[C@@H]4C3(C)C)[C@H]2CO)C1 [Example 13-62, (1R,9R)-6-(1,6-dimethyl-1H-indazol-7-yl)-4-((5R)-5-(hydroxymethyl)-2-(2-propenoyl)-2,6-diazaspiro[3.4]octan-6-yl)-10,10-dimethyl-3-azatricyclo[7.1.1.0^2,7]undeca-2,4,6-triene-5-carbonitrile]	334
C=CC(=O)N1CC2(CCN(c3nc4c(c(-c5c(O)cccc5Cl)c3C#N)C[C@H]3C[C@@H]4C3)C2)C1 [Example 13-64, (1S,9S)-6-(2-chloro-6-hydroxyphenyl)-4-(2-(2-propenoyl)-2,6-diazaspiro[3.4]octan-6-yl)-3-azatricyclo[7.1.1.0^2,7]undeca-2,4,6-triene-5-carbonitrile]	1080
C=CC(=O)N1CC2(CCN(c3nc4c(c(-c5cc(O)c(F)c6ccccc56)c3C#N)COC(C)(C)C4)C2)C1 [Example 13-71, 4-(4-fluoro-3-hydroxy-1-naphthalenyl)-7,7-dimethyl-2-(2-(2-propenoyl)-2,6-diazaspiro[3.4]octan-6-yl)-7,8-dihydro-5H-pyrano[4,3-b]pyridine-3-carbonitrile]	366
C=CC(=O)N1CC2(CCN(c3nc4c(c(-c5cc(O)c(F)c6ccccc56)c3C#N)CCC3CC43)C2)C1 [Example 13-72, (6aR,7aR)-4-(4-fluoro-3-hydroxy-1-naphthalenyl)-2-(2-(2-propenoyl)-2,6-diazaspiro[3.4]octan-6-yl)-6,6a,7,7a-tetrahydro-5H-cyclopropa[h]quinoline-3-carbonitrile|(6aS,7aS)-4-(4-fluoro-3-hydroxy-1-naphthalenyl)-2-(2-(2-propenoyl)-2,6-diazaspiro[3.4]octan-6-yl)-6,6a,7,7a-tetrahydro-5H-cyclopropa[h]quinoline-3-carbonitrile]	564

Compounds with a lower IC50, results first:

IC50 [nM]	SMILES
145	C=CC(=O)N1CC2(CCN(c3nc4c(c(-c5c(C)ccc6cnn(C)c56)c3C#N)CCC3CC43)C2CO)C1 (stereo not drawn) [Example 13-63]
291	C=CC(=O)N1CC2(CCN(c3nc4c(c(-c5cc(O)c(F)c6ccccc56)c3C#N)CC(C)(C)C4)C2)C1 [Example 13-70, 4-(4-fluoro-3-hydroxy-1-naphthalenyl)-6,6-dimethyl-2-(2-(2-propenoyl)-2,6-diazaspiro[3.4]octan-6-yl)-6,7-dihydro-5H-cyclopenta[b]pyridine-3-carbonitrile]
316	CN(C)C/C=C/C(=O)N1CC2(CCN(c3nc4c(c(-c5cc(O)cc6ccccc56)c3C#N)CCC3CC43)C2)C1 [Example 13-85, (6aR,7aS)-2-(2-((2E)-4-(dimethylamino)-2-butenoyl)-2,6-diazaspiro[3.4]octan-6-yl)-4-(3-hydroxy-1-naphthalenyl)-6,6a,7,7a-tetrahydro-5H-cyclopropa[h]quinoline-3-carbontirile|(6aS,7aR)-2-(2-((2E)-4-(dimethylamino)-2-butenoyl)-2,6-diazaspiro[3.4]octan-6-yl)-4-(3-hydroxy-1-naphthalenyl)-6,6a,7,7a-tetrahydro-5H-cyclopropa[h]quinoline-3-carbonitrile]
